6 compounds from ChEMBL document CHEMBL4715920, “Novel Spiropiperidine Allosteric Modulators of Nicotinic Acetylcholine Receptors for Treating Central Nervous System Disorders” (ACS Med Chem Lett, 2021) can be followed below.

The structures appear in SMILES notation.

The experiment concerns the target Neuronal acetylcholine receptor subunit alpha-7 (Homo sapiens, UniProt P36544). Kind of experiment: Positive allosteric modulation of recombinant human AChR alpha7 expressed in HEK cells co-expressing RIC-3 at -60 mV holding potential treated for 58 sec followed by acetylcholine applied for 1 sec measured potentiation effect by automated patch clamp electrophysiological method. Format: cell-based. In general terms: Patch clamp records ionic current or voltage across a cell membrane.

Neuronal acetylcholine receptor subunit alpha-7, sequence (P36544 whole entry): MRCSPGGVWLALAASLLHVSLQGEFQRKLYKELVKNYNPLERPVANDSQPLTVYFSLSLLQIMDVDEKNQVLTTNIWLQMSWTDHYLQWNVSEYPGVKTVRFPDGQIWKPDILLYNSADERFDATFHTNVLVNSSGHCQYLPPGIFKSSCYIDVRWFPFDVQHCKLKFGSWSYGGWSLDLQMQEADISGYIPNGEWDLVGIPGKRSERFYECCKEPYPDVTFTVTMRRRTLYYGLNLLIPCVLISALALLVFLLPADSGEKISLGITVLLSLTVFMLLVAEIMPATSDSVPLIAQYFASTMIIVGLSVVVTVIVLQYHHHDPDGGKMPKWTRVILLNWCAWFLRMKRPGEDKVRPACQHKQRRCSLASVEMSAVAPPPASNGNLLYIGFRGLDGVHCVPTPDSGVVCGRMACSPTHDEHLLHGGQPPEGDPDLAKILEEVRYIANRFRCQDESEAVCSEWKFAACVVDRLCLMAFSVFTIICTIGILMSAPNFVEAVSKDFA

As usually defined, the EC50 is the concentration that produces a half-maximal response. In the case of `NS(=O)(=O)N1CCC2(CC1)C[C@H]2COc1cccc(NCC(F)(F)F)n1`, the EC50 was at most 100 nM.
Consider `COc1ccc(Cl)cc1NC(=O)[C@@H]1C(F)(F)C12CCN(S(N)(=O)=O)CC2`, for which the EC50 is at most 100 nM.
Consider `COc1ccc(Cl)cc1SC[C@@H]1CC12CCN(S(N)(=O)=O)CC2`, for which the EC50 is at most 100 nM.
For the compound `COc1ccc(Cl)cc1NC[C@@H]1CC12CCN(S(N)(=O)=O)CC2`, the EC50 was at most 100 nM.
With `NS(=O)(=O)N1CCC2(CC1)C(COc1noc(-c3ccccc3)n1)C2(F)F` (stereo unspecified), the EC50 is at most 100 nM.
With `NS(=O)(=O)N1CCC2(CC1)C(COc1ccnc(OC(F)F)c1)C2(F)F` (stereo unspecified), the EC50 is at most 100 nM.
